Test results from US5427942A (State of Oregon, Acting by and Through the Oregon State …, priority 1991, dated 1995).

Columns and labels:
[1] = tested on: D5 pseudogenes D5.psi.1 (HGRI-6) and D5.psi.2 (HGRI-8); assay: [3H]SCH23390 binding to membranes of cells transfected with putative pseudogenes; design: species or system human; conditions: each of the two putative pseudogenes
COS-7 cells = conditions: previously shown (Zhou et al., 1990); cited from earlier work

SMILES	binding to pseudogene-transfected membranes [1]	ability to bind SCH23390 (COS-7 cells)
CN1CCc2cc(Cl)c(O)cc2[C@@H](c2ccccc2)C1 [[^3 H]SCH23390]	failed to bind	
CN1CCc2cc(Cl)c(O)cc2[C@@H](c2ccccc2)C1 [SCH23390]		lack the ability to bind
